We go through four molecules from patent US11591297B2, “Compound having PD-L1 expression-suppressing action” (TOHOKU UNIVERSITY, priority 2019, dated 2023).

SMILES strings stand for the structures.

The assay deals with PD-L1. Briefly: Inhibitory effect of PD-L1 expression by cell staining with anti-PD-L1 antibody in IFN-γ-treated THP-1 cells (flow cytometry). The format is cell-based. The following applies: Homo sapiens, IFN-γ 25 ng/mL, 24±2 hours, subMFI anti-CD274-PC7, read-out: IC50 (50% PD-L1 expression inhibition concentration). As for the experimental part: The inhibitory effects of each compound of Examples 1 to 6 on the PD-L1 expression were evaluated according to the following procedures.
(1) Acute monocytic leukemia cell-derived THP-1 cells were suspended in RPMI medium containing 10% FCS and 1% P/S (hereinafter, referred to as “RPMI medium”) at 5×10^5 cells/mL to obtain a cell suspension, and the cell suspension was dispensed into each well of a 6 well-plate in an amount of 3 mL. In order to activate the THP-1 cells and express PD-L1 in the cells, IFN-γ (PEPROTECH, Cat. No. 300-02-100UG, >2e+7 U/mg) was added into each well at a concentration of 25 ng/mL (>500 U/mL). 50 mmol/L of the test compound solution was diluted with the medium (usually, in the range of 0.025 mmol/L to 1 mmol/L), and the diluted solution was added into each well in an amount of 60 μL. The plate was incubated in a CO2 incubator (at 37° C. and 5% CO2) for 24±2 hours. In the control group, only DMSO was added in place of the test compound. (2) A part of the prepared cell culture liquid was collected and the number of cells therein was counted using a cell counter (BIORAD TC-20). The cell culture liquid was centrifuged at 300×g for 5 minutes and the supernatant of the cell culture liquid was removed. The cells were suspended in calcium and magnesium free phosphate buffered saline (PBS−) containing 1% bovine serum albumin (BSA) at a cell concentration of 1 to 2×10^7 cells/mL to prepare a cell suspension. (3) Each cell suspension prepared in the above step (2) were added into a 5 mL tube in an amount of 25 μL. 2 μL of 2% normal mouse serum/PBS− was added into tubes, and the tubes were gently pipetted. The tubes were then allowed to stand at room temperature for 15 minutes. (4) Anti-CD274-PC7 antibody (BECKMAN COULTER, Cat. No. A78884) or mouse IgG1-PC7 antibody (BECKMAN COULTER, 737662) as control was added in each tube in an amount of 10 μL, and the tubes were gently stirred. The tubes were then allowed to stand in the dark on an ice bath for 30 minutes. (5) Foxp3/Transcription Factor Fix/Perm Concentrate (4×) (Cat. No. TNB-1020-L050) (A solution) supplied in FOXP3/Transcription Factor Staining kit (TONBO biosciences) was diluted in Foxp3/Transcription Factor Fix/Perm Diluent (1×) (Cat. No. TNB-1022-L160) (A dilution solution) to prepare a 1×A solution. (6) The 1×A solution was added into each tube in an amount of 1 mL, and the tubes were gently pipetted and stirred. The tubes were then allowed to stand in the dark at room temperature for 30 minutes and centrifuged at 300×g for 5 minutes, and then the supernatants therein were removed. (7) 2 mL of 1% BSA/PBS− was added into each tube and the tubes were gently stirred and centrifuged at 300×g for 5 minutes, and then the supernatants therein were removed. (8) The cells therein were suspended in 0.5 mL of 1% BSA/PBS- and measured with a flow cytometer (Sony: Cell Sorter SH800) within 2 hours. The results were analyzed with a software, FlowJo (Tree Star Inc.). The mean peak fluorescence intensity (MFI) of PD-L1 and mean peak fluorescence intensity of IgG1 were calculated from histograms of the measured fluorescence intensity and number of cells, and the mean fluorescence intensity of IgG1 was subtracted from that of PD-L1 to calculate the subMFI. The experiments were performed in n=2.
The subMFI values of the control cells calculated by the FlowJo analysis and the cells cultured with the addition of the test compounds at each concentration (test cells) were input into an Excel file, and the percentages of the subMFI values of the test cells at each concentration to the average subMFI value of control cells were calculated. The regression line was determined from the percentages of the subMFI values of the test cells at each concentration by the method of least squares to calculate the 50% PD-L1 expression inhibition concentration (IC50 value) of each compound.
In the case of `COc1cc(C(=O)N2CCCC(C(=O)Nc3ccc(Oc4ccc(C(F)(F)F)cc4)cc3)C2)ccc1O` (stereo not shown) [Example 3, 1-(4-Hydroxy-3-methoxybenzoyl)-N-(4-(4-(trifluoromethyl)phenoxy)phenyl)piperidine-3-carboxamide], the IC50 was determined as 0.93 µM.

Take `O=C(Nc1ccc(Oc2ccc(C(F)(F)F)cc2)cc1)C1CCCN(C(=O)c2ccc([N+](=O)[O-])cc2)C1` (stereo not shown) [Example 2, 1-(4-Nitrobenzoyl)-N-(4-(4-(trifluoromethyl)phenoxy)phenyl) piperidine-3-carboxamide]: the IC50 was determined as 1.2 µM. Under `COc1cc(C(=O)N2CCCC(C(=O)Nc3ccc(Oc4ccc(S(F)(F)(F)(F)F)cc4)cc3)C2)ccc1O` (stereo not shown) [Example 6, 1-(4-Hydroxy-3-methoxybenzoyl)-N-(4-(4-(pentafluorosulfanyl)phenoxy)phenyl)piperidine-3-carboxamide] stands 0.83 µM; under `O=C(Nc1ccc(Oc2ccc(S(F)(F)(F)(F)F)cc2)cc1)C1CCCN(C(=O)c2ccc([N+](=O)[O-])cc2)C1` (stereo not shown) [Example 5, 1-(4-Nitrobenzoyl)-N-(4-(4-(pentafluorosulfanyl)phenoxy)phenyl)piperidine-3-carboxamide], 0.67 µM.
